Test results reported in patent US20230028441A1, “NOVEL HETEROARYL-TRIAZOLE COMPOUNDS AS PESTICIDES” (Bayer Aktiengesellschaft, priority 2019, published 2023).

Columns and labels:
Type in all cases: in vivo
[1] = tested on: larvae of the southern green stink bug (Nezara viridula); experiment: Nezara viridula spray test; settings: in Hordeum vulgare, 96 h
How it was run: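 Percent mortality of southern green stink bug larvae read 4 days after spraying infested Hordeum vulgare. Test solutions: compound in acetone plus dimethylformamide, diluted with emulsifier-containing water (1000 ppm alkylarylpolyglycol ether).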

[2] = tested on: larvae of the banded cucumber beetle (Diabrotica balteata); experiment: Diabrotica balteata spray test; settings: 168 h, 100 g/ha (=32 μg/well), after 7 days, wheat seeds, read-out: efficacy (seedlings grown up)
How it was run: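 Efficacy (%) read at day 7: 100% means seedlings grew like untreated, uninfested controls; 0% means no seedlings grew. Wheat seeds germinated 1 day on agar, sprayed with emulsified compound solution (1000 ppm emulsifier in water), then each well infested with 10-20 larvae.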

[3] = tested on: brown planthopper (Nilaparvata lugens); experiment: Nilaparvata lugens spray test; settings: in Oryza sativa, 96 h
Description: Solvent: 78.0 parts by weight of acetone • • 1.5 parts by weight of dimethylformamide
Emulsifier: alkylarylpolyglycol ether
To produce a suitable preparation of active compound, 1 part by weight of active compound is mixed with the stated amount of solvents and is diluted with water, containing an emulsifier concentration of 1000 ppm, to the desired concentration. Further test concentrations are prepared by dilution with emulsifier containing water.
Rice plants (Oryza sativa) are sprayed with a preparation of the active ingredient of the desired concentration and the plants are infested with the brown planthopper (Nilaparvata lugens).
After 4 days mortality in % is determined. 100% means all planthoppers have been killed and 0% means none of the planthoppers have been killed.

[4] = tested on: fall armyworm larvae (Spodoptera frugiperda); experiment: Spodoptera frugiperda spray test (maize leaf sections); settings: 168 h
How it was run: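 Percent kill of Spodoptera frugiperda larvae was recorded 7 days after infesting dried, treated maize leaf sections. Spray solutions were made from an acetone/DMF compound preparation diluted with 1000 ppm emulsifier-containing water.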

[5] = tested on: adult cat fleas (Ctenocephalides felis); experiment: Ctenocephalides felis in-vitro contact test, adult cat flea; settings: 5 μg/cm^2 (=500 g/ha), after 48 hours, read-out: efficacy (fleas dead or moribund)
Description: (§1) 9 mg compound is solved in 1 mL acetone and diluted with acetone to the desired concentration. 250 μL of the test solution is filled in 25 mL glass test tubes and homogeneously distributed on the inner walls by rotation and tilting on a shaking device (2 h at 30 rpm). With a compound concentration of 900 ppm, an inner surface of 44.7 cm^2 and a homogeneous distribution, a dose of 5 μg/cm^2 is achieved.
(§2) After the solvent has evaporated, each test tube is filled with 5-10 adult cat fleas (Ctenocephalides felis), closed with a perforated lid and incubated in a lying position at room temperature and relative humidity. After 48 hours efficacy is determined. The fleas are patted on the ground of the tubes and are incubated on a heating plate at 45-50° C. for at most 5 minutes. Immotile or uncoordinated moving fleas, which are not able to escape the heat by climbing upwards, are marked as dead or moribund.
An efficacy of 100% means all fleas are dead or moribund; 0% means no fleas are dead or moribund.

[6] = tested on: cattle tick larvae (Rhipicephalus microplus), strain Parkhurst, resistant against synthetic pyrethroids; experiment: Rhipicephalus (Boophilus) microplus in-vitro contact test, larval cattle tick; settings: 5 μg/cm^2 (=500 g/ha), after 48 hours, read-out: efficacy (larvae dead or moribund)
How it was run: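 Efficacy, 100% meaning all larvae dead or moribund, was judged at 48 h from loss of negative geotactic climbing. Larvae of the Parkhurst strain, 20–50 per tube, were exposed at 27° C and 85% humidity to acetone-coated tube surfaces; 900 ppm corresponded to 5 μg/cm^2.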

[7] = tested on: adult unfed cat fleas (Ctenocephalides felis); experiment: Ctenocephalides felis oral test; settings: 48 h, 100 ppm in cattle blood, after 2 days
Description: Solvent: dimethyl sulfoxide
To produce a suitable preparation of active compound, 10 mg of active compound are dissolved in 0.5 mL solvent, and the concentrate is diluted with cattle blood to the desired concentration.
Approximately 20 adult unfed cat fleas (Ctenocephalides felis) are placed in flea chambers. The blood chamber, sealed with parafilm on the bottom, are filled with cattle blood supplied with compound solution and placed on the gauze covered top of the flea chamber, so that the fleas are able to suck the blood. The blood chamber is heated to 37° C. whereas the flea chamber is kept at room temperature.
After 2 days mortality in % is determined. 100% means all the fleas have been killed; 0% means none of the fleas have been killed.

[8] = tested on: adult engorged female ticks (Rhipicephalus microplus); experiment: Rhipicephalus (Boophilus) microplus injection test; settings: 168 h, egg deposition after 7 days, read-out: efficacy (infertile eggs); for pest or weed control at 0.004 mg: 4 μg/animal
How it was run: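 Efficacy is the share of infertile eggs: 100% means none are fertile, 0% means all are fertile. Egg deposition was checked 7 days after injecting 1 μL of DMSO-diluted compound into the abdomen of five engorged female R. microplus, with doubtful eggs kept about 42 days to hatching. The stock was 10 mg in 0.5 mL DMSO.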

[9] = tested on: adult brown dog ticks (Rhipicephalus sanguineus); experiment: Rhipicephalus sanguineus in-vitro contact test with adult brown dog ticks; settings: after 48 hours, read-out: efficacy (ticks dead or moribund)
Description: as §1
as §2, with “brown dog ticks (Rhipicephalus sanguineus),” for “cat fleas (Ctenocephalides felis),”, “ticks” for “fleas”, “ticks,” for “fleas,”
An efficacy of 100% means all ticks are dead or moribund; 0% means no ticks are dead or moribund.

CNc1nc([C@H](C)NC(=O)c2cc(C(F)(F)F)cc(C(F)(F)F)c2)n(-c2ccc(C#N)cn2)n1 [I-168]
mortality at 500 g/ha [1]: 100%
pest or weed control at 32 µg/disc, 100 g/ha [2]: 100%
mortality at 500 g/ha [3]: 100%
mortality at 100 g/ha [4]: 100%

CNc1nc([C@H](C)NC(=O)c2cc(OC(F)(F)F)cc(S(C)(=O)=O)c2)n(-c2ncccn2)n1 [I-185]
mortality at 500 g/ha [1]: 100%
pest or weed control at 32 µg/disc, 100 g/ha [2]: 100%
mortality at 500 g/ha [3]: 100%

CCS(=O)(=O)c1cc(OC(F)(F)F)cc(C(=O)N[C@@H](C)c2nc(NC)nn2-c2ncccn2)c1 [I-180]
mortality at 500 g/ha [1]: 100%
pest or weed control at 32 µg/disc, 100 g/ha [2]: 100%
mortality at 500 g/ha [3]: 100%
mortality at 100 g/ha [4]: 100%

CC(NC(=O)c1cc(Cl)cc(C(C)(C)C#N)c1)c1nc(N(C)C)nn1-c1ncc(Cl)cn1 (stereo not drawn) [I-170]
mortality at 500 g/ha [1]: 100%
pest or weed control at 32 µg/disc, 100 g/ha [2]: 100%
mortality at 500 g/ha [3]: 100%
mortality at 100 g/ha [4]: 100%

CC(NC(=O)c1cc(Cl)cc(C(F)(F)F)c1)c1nc(C(N)=O)nn1-c1ccc(C#N)cn1 (stereo not drawn) [I-075]
pest or weed control at 32 µg/disc, 100 g/ha [2]: 100%
pest or weed control at 5 µg/cm2 [5]: 90%
pest or weed control at 5 µg/cm2 [6]: 100%
mortality at 100 ppm [7]: 100%
pest or weed control at 0.004 mg [8]: 100%

CC(NC(=O)c1cc(Cl)cc(S(C)(=O)=O)c1)c1nc(N2CCOCC2)nn1-c1ccc(C#N)cn1 (stereo not drawn) [I-160]
mortality at 500 g/ha [3]: 100%

C[C@H](NC(=O)c1cc(OC(F)(F)F)cc(C2CC2)c1)c1nc(N(C)C)nn1-c1ncc(Cl)cn1 [I-177]
mortality at 500 g/ha [1]: 100%
pest or weed control at 32 µg/disc, 100 g/ha [2]: 100%
mortality at 500 g/ha [3]: 100%
mortality at 100 g/ha [4]: 100%

C[C@H](NC(=O)c1cc(C(F)(F)F)cc(C(F)(F)F)c1)c1nc(N2CCOCC2)nn1-c1ccc(C#N)cn1 [I-175]
pest or weed control at 32 µg/disc, 100 g/ha [2]: 100%
mortality at 500 g/ha [3]: 100%
mortality at 100 g/ha [4]: 100%

CNc1nc([C@H](C)NC(=O)c2cc(OC(F)(F)F)cc(S(=O)(=O)C(C)C)c2)n(-c2ncccn2)n1 [I-181]
mortality at 500 g/ha [3]: 100%

C[C@H](NC(=O)c1cc(Cl)cc(S(C)(=O)=O)c1)c1nc(N)nn1-c1ncccn1 [I-169]
mortality at 500 g/ha [1]: 100%
mortality at 500 g/ha [3]: 100%

CNc1nc([C@H](C)NC(=O)c2cc(Cl)cc(S(=O)(=O)C(F)(F)F)c2)n(-c2ncccn2)n1 [I-186]
mortality at 500 g/ha [1]: 100%
pest or weed control at 32 µg/disc, 100 g/ha [2]: 100%
mortality at 500 g/ha [3]: 100%
mortality at 100 g/ha [4]: 100%

C[C@H](NC(=O)c1cc(OC(F)(F)F)cc(S(C)(=O)=O)c1)c1nc(N)nn1-c1ncccn1 [I-188]
mortality at 500 g/ha [1]: 100%
mortality at 500 g/ha [3]: 100%

CC(NC(=O)c1cc(C(F)(F)F)cc(C(F)(F)F)c1)c1nc(N)nn1-c1ccc(C(=O)N2CCOCC2)cn1 (stereo not drawn) [I-115]
mortality at 500 g/ha [1]: 100%
mortality at 100 g/ha [4]: 100%
pest or weed control at 5 µg/cm2 [5]: 100%
pest or weed control at 5 µg/cm2 [6]: 100%
pest or weed control at 1 µg/cm2, 100 g/ha ([9]; 1 μg/cm^2 (=100 g/ha)): 100%
pest or weed control at 5 µg/cm2, 500 g/ha ([9]; 5 μg/cm^2 (=500 g/ha)): 100%

CNc1nc([C@H](C)NC(=O)c2cc(C3CC3)cc(S(=O)(=O)C(F)(F)F)c2)n(-c2ncccn2)n1 [I-183]
mortality at 500 g/ha [1]: 100%
pest or weed control at 32 µg/disc, 100 g/ha [2]: 100%
mortality at 500 g/ha [3]: 100%
mortality at 100 g/ha [4]: 100%

CCS(=O)(=O)c1cc(C(=O)N[C@@H](C)c2nc(N)nn2-c2ncccn2)cc(C(F)(F)F)c1 [I-189]
mortality at 500 g/ha [1]: 100%
mortality at 500 g/ha [3]: 100%

C[C@H](NC(=O)c1cc(C(F)(F)F)cc(C(F)(F)F)c1)c1nc(N)nn1-c1ccc(C#N)cn1 [I-173]
mortality at 500 g/ha [1]: 90%
pest or weed control at 32 µg/disc, 100 g/ha [2]: 100%
mortality at 500 g/ha [3]: 100%
mortality at 100 g/ha [4]: 100%

CON(C)c1nc([C@H](C)NC(=O)c2cc(Br)cc(OC(F)(F)F)c2)n(-c2ncccn2)n1 [I-151]
mortality at 500 g/ha [1]: 100%
pest or weed control at 32 µg/disc, 100 g/ha [2]: 100%
mortality at 500 g/ha [3]: 100%
mortality at 100 g/ha [4]: 100%

C[C@H](NC(=O)c1cc(OC(F)(F)F)cc(C2CC2)c1)c1nc(N2CCOCC2)nn1-c1ccc(C#N)cn1 [I-174]
pest or weed control at 32 µg/disc, 100 g/ha [2]: 100%
mortality at 500 g/ha [3]: 100%

C[C@H](NC(=O)c1cc(C(F)(F)F)cc(C(F)(F)F)c1)c1nc(N(C)C)nn1-c1ncc(Cl)cn1 [I-176]
mortality at 500 g/ha [1]: 100%
pest or weed control at 32 µg/disc, 100 g/ha [2]: 100%
mortality at 500 g/ha [3]: 100%
mortality at 100 g/ha [4]: 100%

CNc1nc([C@H](C)NC(=O)c2cc(OC(F)(F)F)cc(S(=O)(=O)c3ccc(Cl)cc3)c2)n(-c2ncccn2)n1 [I-182]
pest or weed control at 32 µg/disc, 100 g/ha [2]: 100%
mortality at 500 g/ha [3]: 100%
mortality at 100 g/ha [4]: 100%

C[C@H](NC(=O)c1cc(C(F)(F)F)cc(S(C)(=O)=O)c1)c1nc(N)nn1-c1ncccn1 [I-211]
mortality at 500 g/ha [1]: 100%
mortality at 500 g/ha [3]: 100%

CC(NC(=O)c1cc(Br)cc(C2(C(F)(F)F)CC2)c1)c1nc(N)nn1-c1ncccn1 (stereo not drawn) [I-112]
pest or weed control at 5 µg/cm2 [5]: 90%
pest or weed control at 5 µg/cm2 [6]: 100%

CC(NC(=O)c1cc(Cl)cc(C(F)(F)F)c1)c1nc(C#N)nn1-c1ccc(Cl)cn1 (racemic) [I-071, 3-chloro-N-[1-[2-(5-chloro-2-pyridyl)-5-cyano-1,2,4-triazol-3-yl]ethyl]-5-(trifluoromethyl)benzamide]
pest or weed control at 5 µg/cm2 [5]: 80%
pest or weed control at 5 µg/cm2 [6]: 90%
pest or weed control at 0.004 mg [8]: 100%
pest or weed control at 0.02 mg ([8]; 20 μg/animal): 100%

CON(C)c1nc([C@H](C)NC(=O)c2cc(C(F)(F)F)cc(C(F)(F)F)c2)n(-c2ncccn2)n1 [I-149, N-[(1S)-1-[5-[methoxy(methyl)amino]-2-pyrimidin-2-yl-1,2,4-triazol-3-yl]ethyl]-3,5-bis(trifluoromethyl)benzamide]
mortality at 500 g/ha [1]: 100%
pest or weed control at 32 µg/disc, 100 g/ha [2]: 100%
mortality at 500 g/ha [3]: 100%
mortality at 100 g/ha [4]: 100%
